Assay results from patent publication US8685992B2, “Histone deacetylase inhibitors based simultaneously on trisubstituted 1H-pyrroles and aromatic and heteroaromatic spacers” (Universidad del País Vasco, priority 2009, dated 2014).

How the values were obtained:
Human HDAC1 = Human HDAC1 (Homo sapiens (Human), UniProt Q13547); experiment: HDAC1 fluorogenic peptide deacetylation assay; type: biochemical; settings: human HDAC1, 50 μM substrate, 30° C., 2 h; read-out: IC50 (nM) of enzyme activity HDAC1
Human HDAC1, sequence (Q13547 whole entry): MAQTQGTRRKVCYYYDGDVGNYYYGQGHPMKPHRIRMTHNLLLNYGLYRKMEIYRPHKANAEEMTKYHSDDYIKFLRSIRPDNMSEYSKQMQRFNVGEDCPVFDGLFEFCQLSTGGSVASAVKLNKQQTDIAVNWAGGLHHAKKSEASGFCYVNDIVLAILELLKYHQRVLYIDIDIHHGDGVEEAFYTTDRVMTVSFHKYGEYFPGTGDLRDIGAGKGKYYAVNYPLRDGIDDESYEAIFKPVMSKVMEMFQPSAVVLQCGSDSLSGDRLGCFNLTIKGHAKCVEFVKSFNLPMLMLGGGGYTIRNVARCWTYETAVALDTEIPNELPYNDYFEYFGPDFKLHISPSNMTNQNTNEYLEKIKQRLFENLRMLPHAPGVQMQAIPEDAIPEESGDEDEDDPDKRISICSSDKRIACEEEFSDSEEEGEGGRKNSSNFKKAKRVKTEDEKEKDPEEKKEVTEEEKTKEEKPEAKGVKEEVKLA

Human HDAC8 = Human HDAC8 (Homo sapiens (Human), UniProt Q9BY41); experiment: HDAC8 fluorogenic peptide deacetylation assay; type: biochemical; settings: human HDAC8, 50 μM substrate, 30° C., 2 h; read-out: IC50 (nM) of enzyme activity HDAC8
Human HDAC8, sequence (Q9BY41 whole entry): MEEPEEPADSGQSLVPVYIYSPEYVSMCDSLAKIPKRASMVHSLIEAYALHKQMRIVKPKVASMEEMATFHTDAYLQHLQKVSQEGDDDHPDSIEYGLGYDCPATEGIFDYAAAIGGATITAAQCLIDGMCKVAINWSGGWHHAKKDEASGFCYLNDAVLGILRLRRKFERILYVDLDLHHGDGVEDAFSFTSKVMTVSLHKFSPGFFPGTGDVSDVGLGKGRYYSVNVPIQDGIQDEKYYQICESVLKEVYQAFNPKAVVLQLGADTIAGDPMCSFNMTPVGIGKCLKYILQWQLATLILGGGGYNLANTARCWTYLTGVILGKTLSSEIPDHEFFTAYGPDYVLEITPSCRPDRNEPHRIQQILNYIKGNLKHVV

[1] = tested on: Nuclear Extract from HeLa Cells; experiment: HeLa Nuclear Extract HDAC assay; type: biochemical, human; settings: 50 μM substrate, 30° C., 2 h, read-out: IC50 (nM) of enzyme activity HeLa
Human HDAC2 = Human HDAC2 (Homo sapiens (Human), UniProt Q92769); experiment: HDAC2 fluorogenic peptide deacetylation assay; type: biochemical; settings: human HDAC2, 50 μM substrate, 30° C., 2 h; read-out: IC50 (nM) of enzyme activity HDAC2
Human HDAC2, sequence (Q92769 whole entry): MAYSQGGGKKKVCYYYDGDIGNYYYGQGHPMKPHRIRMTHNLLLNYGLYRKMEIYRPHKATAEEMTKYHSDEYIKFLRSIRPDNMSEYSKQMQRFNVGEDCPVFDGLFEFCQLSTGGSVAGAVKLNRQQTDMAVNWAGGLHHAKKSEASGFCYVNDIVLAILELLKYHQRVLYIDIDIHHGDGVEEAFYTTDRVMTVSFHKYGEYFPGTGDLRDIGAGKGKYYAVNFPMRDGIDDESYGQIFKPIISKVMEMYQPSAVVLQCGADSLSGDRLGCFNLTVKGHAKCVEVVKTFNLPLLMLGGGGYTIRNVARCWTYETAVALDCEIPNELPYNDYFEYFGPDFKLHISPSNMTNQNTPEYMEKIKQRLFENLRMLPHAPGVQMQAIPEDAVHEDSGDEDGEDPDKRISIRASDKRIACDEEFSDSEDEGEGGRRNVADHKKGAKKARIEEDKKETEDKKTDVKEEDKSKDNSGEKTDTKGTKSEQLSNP

Human HDAC3/NcoR2 = Human HDAC3/NcoR2 (Homo sapiens (Human), UniProt O15379); experiment: HDAC3 fluorogenic peptide deacetylation assay; type: biochemical; settings: human HDAC3/NcoR2, 50 μM substrate, 30° C., 2 h; read-out: IC50 (nM) of enzyme activity HDAC3
Human HDAC3/NcoR2, sequence (O15379 whole entry): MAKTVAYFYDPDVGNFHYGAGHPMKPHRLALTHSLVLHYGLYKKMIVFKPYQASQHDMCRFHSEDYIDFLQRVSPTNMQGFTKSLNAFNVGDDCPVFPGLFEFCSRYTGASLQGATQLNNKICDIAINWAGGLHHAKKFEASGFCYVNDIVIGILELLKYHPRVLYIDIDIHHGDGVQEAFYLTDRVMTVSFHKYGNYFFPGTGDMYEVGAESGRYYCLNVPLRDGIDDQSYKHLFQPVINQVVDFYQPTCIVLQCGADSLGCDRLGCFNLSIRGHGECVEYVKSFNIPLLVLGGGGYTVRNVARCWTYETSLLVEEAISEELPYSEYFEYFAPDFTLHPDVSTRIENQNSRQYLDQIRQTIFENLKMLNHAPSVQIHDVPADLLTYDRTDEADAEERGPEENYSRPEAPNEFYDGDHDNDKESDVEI
Human HDAC3/NcoR2, sequence (Q9Y618 395-489 partner): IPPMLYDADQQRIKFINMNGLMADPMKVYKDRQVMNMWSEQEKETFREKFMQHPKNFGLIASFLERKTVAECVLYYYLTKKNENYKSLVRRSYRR

Human HDAC6 = Human HDAC6 (Homo sapiens (Human), UniProt Q9UBN7); experiment: HDAC6 fluorogenic peptide deacetylation assay; type: biochemical; settings: human HDAC6, 50 μM substrate, 30° C., 2 h; read-out: IC50 (nM) of enzyme activity HDAC6
Human HDAC6, sequence (Q9UBN7 whole entry): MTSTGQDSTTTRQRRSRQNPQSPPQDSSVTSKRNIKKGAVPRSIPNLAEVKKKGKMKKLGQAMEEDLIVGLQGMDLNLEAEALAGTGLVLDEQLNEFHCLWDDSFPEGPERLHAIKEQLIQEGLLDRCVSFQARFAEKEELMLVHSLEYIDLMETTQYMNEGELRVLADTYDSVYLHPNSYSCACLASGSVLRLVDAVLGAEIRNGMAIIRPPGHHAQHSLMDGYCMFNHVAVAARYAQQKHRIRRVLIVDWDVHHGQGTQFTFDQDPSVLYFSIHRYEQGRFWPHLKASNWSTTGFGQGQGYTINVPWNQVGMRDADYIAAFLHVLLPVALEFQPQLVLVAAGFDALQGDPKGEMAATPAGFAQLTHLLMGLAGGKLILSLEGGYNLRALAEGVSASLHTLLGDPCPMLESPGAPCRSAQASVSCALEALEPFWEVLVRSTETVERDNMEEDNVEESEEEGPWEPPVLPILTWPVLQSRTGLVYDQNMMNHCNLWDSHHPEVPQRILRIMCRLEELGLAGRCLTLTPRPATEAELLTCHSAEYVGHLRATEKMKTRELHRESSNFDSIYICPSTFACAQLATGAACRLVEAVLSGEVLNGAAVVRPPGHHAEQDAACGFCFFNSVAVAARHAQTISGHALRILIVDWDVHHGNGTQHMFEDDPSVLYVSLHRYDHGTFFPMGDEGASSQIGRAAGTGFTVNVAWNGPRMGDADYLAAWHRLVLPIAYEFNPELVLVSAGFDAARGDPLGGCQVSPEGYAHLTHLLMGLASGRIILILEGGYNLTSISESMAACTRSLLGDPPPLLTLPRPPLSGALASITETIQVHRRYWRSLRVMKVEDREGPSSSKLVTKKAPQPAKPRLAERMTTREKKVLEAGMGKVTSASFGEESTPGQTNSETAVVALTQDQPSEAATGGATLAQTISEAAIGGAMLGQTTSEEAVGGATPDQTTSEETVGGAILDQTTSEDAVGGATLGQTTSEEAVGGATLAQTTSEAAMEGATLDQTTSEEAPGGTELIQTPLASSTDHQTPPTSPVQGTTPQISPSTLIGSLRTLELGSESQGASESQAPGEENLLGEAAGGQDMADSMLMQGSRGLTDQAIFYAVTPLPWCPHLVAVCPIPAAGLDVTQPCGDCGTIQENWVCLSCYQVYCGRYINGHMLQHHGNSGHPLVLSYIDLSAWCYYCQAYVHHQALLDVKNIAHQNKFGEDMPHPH

[2] = target: histone deacetylase from rat liver; experiment: Rat liver HDAC assay; type: biochemical; settings: Boc-Lys(Ac)-AMC substrate, 30° C., 2 h, read-out: IC50 (nM) of enzyme activity Rat liver

| IC50 (Human HDAC1) [nM] | IC50 (Human HDAC8) [nM] | IC50 [1] [nM] | IC50 (Human HDAC2) [nM] | IC50 (Human HDAC3/NcoR2) [nM] | melting point | IC50 (Human HDAC6) [nM] | IC50 [2] [nM] | Structure (SMILES) |
| --- | --- | --- | --- | --- | --- | --- | --- | --- |
| 865 | 559 | 42 | 1910 | 614 | 171 to 172 °C | 6.6 |  | O=C(NO)c1ccc(CNC(=O)c2[nH]c(-c3cccs3)cc2-c2ccc(O)cc2)cc1 [Example 13, N-{4-[(hydroxyamino)carbonyl]benzyl}-3-(4-hydroxyphenyl)-5-(2-thienyl)-1H-pyrrole-2-carboxamide] |
|  |  | 73 |  |  |  |  | 71 | O=C(NO)c1ccc(CNC(=O)c2[nH]c(-c3ccccc3)cc2-c2ccc(F)cc2)cc1 [Example 29, 3-(4-fluorophenyl)-N-{4-[(hydroxyamino)carbonyl]benzyl}-5-phenyl-1H-pyrrole-2-carboxamide] |
|  |  |  |  |  | 152 to 153 °C |  | 9790 | O=C(NO)c1ccc(CNC(=O)c2[nH]c(-c3ccccc3)cc2-c2ccc(F)cc2)o1 [Example 17, 3-(4-fluorophenyl)-N-({5-[(hydroxyamino)carbonyl]-2-furyl}methyl)-5-phenyl-1H-pyrrole-2-carboxamide] |
|  |  |  |  |  |  |  | > 10000 | COc1ccc(-c2cc(-c3ccccc3)[nH]c2C(=O)NCc2ccc(C(=O)NCCS)cc2)cc1 [Example 23, 3-(4-methoxyphenyl)-5-phenyl-N-(4-{[(2-sulfanylethyl)amino]carbonyl}benzyl)-1H-pyrrole-2-carboxamide] |
|  |  |  |  |  |  |  | 62 | O=C(NO)c1ccc(CNC(=O)c2[nH]c(-c3ccccc3)cc2-c2ccc([N+](=O)[O-])cc2)cc1 [Example 43, N-{4-[(hydroxyamino)carbonyl]benzyl}-3-(4-nitrophenyl)-5-phenyl-1H-pyrrole-2-carboxamide] |
| 222 | > 5000 | 4080 | 752 | 2070 |  | > 5000 |  | Nc1ccccc1NC(=O)c1ccc(CNC(=O)c2[nH]c(-c3ccsc3)cc2-c2ccc(O)cc2)cc1 [Example 36, N-(4-{[(2-aminophenyl)amino)carbonyl]benzyl}-3-(4-hydroxyphenyl)-5-(3-thienyl)-1H-pyrrole-2-carboxamide] |
|  |  |  |  |  |  |  | 70 | COc1ccc(-c2cc(-c3ccccc3)[nH]c2C(=O)NCc2ccc(C(=O)NO)cc2)cc1 [Example 38, N-{4-[(hydroxyamino)carbonyl]benzyl}-3-(4-methoxyphenyl)-5-phenyl-1H-pyrrole-2-carboxamide] |
|  |  |  |  |  |  |  | 115 | O=C(NO)c1ccc(CNC(=O)c2[nH]c(-c3ccccc3)cc2-c2cccc(Br)c2)cc1 [Example 45, 3-(3-bromophenyl)-N-{4-[(hydroxyamino)carbonyl]benzyl}-5-phenyl-1H-pyrrole-2-carboxamide] |
|  |  | 90 |  |  |  |  | 82 | O=C(NO)c1ccc(CNC(=O)c2[nH]c(-c3ccc(F)cc3)cc2-c2ccc(F)cc2)cc1 [Example 30, 3,5-bis-(4-fluorophenyl)-N-{4-[(hydroxyamino)carbonyl]benzyl}-1H-pyrrole-2-carboxamide] |
|  |  |  |  |  |  |  | 170 | O=C(NO)c1ccc(CNC(=O)c2[nH]c(-c3ccccc3)cc2-c2ccc(C(F)(F)F)cc2)cc1 [Example 39, N-{4-[(hydroxyamino)carbonyl]benzyl}-5-phenyl-3-(4-trifluoromethylphenyl)-1H-pyrrole-2-carboxamide] |
| 744 | 181 | 68.3 | 2530 | 754 | 151 to 152 °C |  |  | O=C(NO)c1ccc(CNC(=O)c2[nH]c(-c3cccs3)cc2-c2ccc(F)cc2)nc1 [Example 11, 6-[({[3-(4-fluorophenyl)-5-(2-thienyl)-1H-pyrrol-2-yl]carbonyl}amino)methyl]-N-hydroxynicotinamide] |
| 103 | > 5000 | 3270 | 364 | 732 |  | > 5000 |  | Nc1ccccc1NC(=O)c1ccc(CNC(=O)c2[nH]c(-c3ccc(O)cc3)cc2-c2ccsc2)cc1 [Example 33, N-(4-{[(2-aminophenyl)amino)carbonyl]benzyl}-5-(4-hydroxyphenyl)-3-(3-thienyl)-1H-pyrrole-2-carboxamide] |
|  |  |  |  |  |  |  | 99 | O=C(NO)c1ccc(CNC(=O)c2[nH]c(-c3ccccc3)cc2-c2ccc(Br)cc2)cc1 [Example 40, 3-(4-bromophenyl)-N-{4-[(hydroxyamino)carbonyl]benzyl}-5-phenyl-1H-pyrrole-2-carboxamide] |
| 86 | > 5000 | 1540 | 349 | 770 |  | 1260 |  | Nc1ccccc1NC(=O)c1ccc(CNC(=O)c2[nH]c(-c3ccoc3)cc2-c2ccc(O)cc2)cc1 [Example 34, N-(4-{[(2-aminophenyl)amino)carbonyl]benzyl}-5-(3-furyl)-3-(4-hydroxyphenyl)-1H-pyrrole-2-carboxamide] |
| 108 | > 5000 | 4280 | 433 | 806 |  | > 5000 |  | Nc1ccccc1NC(=O)c1ccc(CNC(=O)c2[nH]c(-c3ccc(O)cc3)cc2-c2ccccc2)cc1 [Example 35, N-(4-{[(2-Aminophenyl)amino)carbonyl]benzyl}-5-(4-hydroxyphenyl)-3-phenyl-1H-pyrrole-2-carboxamide] |
|  |  |  |  |  |  |  | 129 | O=C(NO)c1ccc(CNC(=O)c2[nH]c(-c3ccccc3)cc2-c2ccc(F)c(F)c2)cc1 [Example 42, 3-(3,4-difluorophenyl)-N-{4-[(hydroxyamino)carbonyl]benzyl}-5-phenyl-1H-pyrrole-2-carboxamide] |
|  |  |  |  |  |  |  | 119 | COc1ccc(-c2cc(-c3ccccc3)[nH]c2C(=O)NCc2ccc(C(=O)NO)cc2)cc1OC [Example 41, N-{4-[(hydroxyamino)carbonyl]benzyl}-3-(3,4-dimethoxyphenyl)-5-phenyl-1H-pyrrole-2-carboxamide] |
|  |  |  |  |  |  |  | 70 | O=C(NO)c1ccc(CNC(=O)c2[nH]c(-c3cccnc3)cc2-c2ccc(F)cc2)cc1 [Example 46, 3-(4-fluorophenyl)-N-{4-[(hydroxyamino)carbonyl]benzyl}-5-(3-pyridinyl)-1H-pyrrole-2-carboxamide] |
|  |  | 390 |  |  |  |  |  | O=C(NO)c1ccc(CNC(=O)c2[nH]c(-c3cccs3)cc2-c2ccc(F)cc2)cn1 [Example 32, 3-(4-fluorophenyl)-N-{2-[(hydroxyamino)carbonyl]-5-pyridyl-methyl}-5-(2-thienyl)-1H-pyrrole-2-carboxamide] |
| 508 | 146 | 43 | 1690 | 613 |  | 34.9 |  | COc1ccc(-c2cc(-c3ccccc3)[nH]c2C(=O)NCCCCCC(=O)NO)cc1 [Kendine 91, N-[6-(hydroxyamino)-6-oxohexyl]-3-(4-methoxyphenyl)-5-phenyl-1H-pyrrole-2-carboxamide, reference compound] |
|  |  |  |  |  |  |  | 153 | O=C(NO)c1ccc(CNC(=O)c2[nH]c(-c3ccccc3)cc2-c2ccc(Cl)c(Cl)c2)cc1 [Example 44, 3-(3,4-dichlorophenyl)-N-{4-[(hydroxyamino)carbonyl]benzyl}-5-phenyl-1H-pyrrole-2-carboxamide] |
|  |  |  |  |  | 160 to 162 °C |  | > 10000 | COc1ccc(-c2cc(-c3ccccc3)[nH]c2C(=O)Nc2ccc(C(=O)NO)o2)cc1 [Example 16, N-{5-[(hydroxyamino)carbonyl]-2-furyl}-3-(4-methoxyphenyl)-5-phenyl-1H-pyrrole-2-carboxamide] |
|  |  |  |  |  |  |  | 108 | Cc1ccc(-c2cc(-c3ccc(F)cc3)c(C(=O)NCc3ccc(C(=O)NO)cc3)[nH]2)cc1 [Example 47, 3-(4-fluorophenyl)-N-{4-[(hydroxyamino)carbonyl]benzyl}-5-(4-methylphenyl)-1H-pyrrole-2-carboxamide] |
|  |  | 58 |  |  |  |  | 49 | O=C(NO)c1ccc(CNC(=O)c2[nH]c(-c3cccs3)cc2-c2ccc(F)cc2)cc1 [Example 31, 3-(4-fluorophenyl)-N-{4-[(hydroxyamino)carbonyl]benzyl}-5-(2-thienyl)-1H-pyrrole-2-carboxamide] |
|  |  |  |  |  | 205 to 206 °C |  | > 10000 | COc1ccc(-c2cc(-c3ccccc3)[nH]c2C(=O)Nc2cccc(CC(=O)NO)c2)cc1 [Example 18, N-{3-[2-(hydroxyamino)-2-oxoethyl]phenyl}-3-(4-methoxyphenyl)-5-phenyl-1H-pyrrole-2-carboxamide] |
|  |  |  |  |  | 234 to 235 °C |  | 101 | COc1ccc(-c2cc(-c3ccccc3)[nH]c2C(=O)Nc2ccc(C(=O)NO)cc2)cc1 [Example 19, N-{4-[(hydroxyamino)carbonyl]phenyl}-3-(4-methoxyphenyl)-5-phenyl-1H-pyrrole-2-carboxamide] |

| Structure (SMILES) | IC50 (Human HDAC1) [nM] | IC50 (Human HDAC8) [nM] | IC50 [1] [nM] | IC50 (Human HDAC2) [nM] | IC50 (Human HDAC3/NcoR2) [nM] | melting point | IC50 (Human HDAC6) [nM] | IC50 [2] [nM] |
| --- | --- | --- | --- | --- | --- | --- | --- | --- |
| COc1ccc(-c2cc(-c3ccccc3)[nH]c2C(=O)NCc2ccc(C(=O)Nc3ccccn3)cc2)cc1 [Example 25, 3-(4-methoxyphenyl)-5-phenyl-N-{4-[(pyridin-2-ylamino)carbonyl]benzyl}-1H-pyrrole-2-carboxamide] | > 5000 | > 5000 | > 5000 | > 5000 | > 5000 | 196 °C (dec.) | > 5000 |  |
